Results from ChEMBL document CHEMBL1201862, “PubChem BioAssay data set” (2004).
Counter-ions that a name gives are not always drawn.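 Exposure lasted 48 hours, with cells grown in 96-well plates and compounds tested at five concentrations. GI50 is the concentration that inhibits growth by half.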 Calls of active or inactive are those of the source. Rule as the data show it: active = GI50 up to about 1.1 µM and inactive = higher. Residues, ends and D or L forms follow the SMILES beside them. *: point of attachment. Boc = CC(C)(C)OC(=O)*

Assays:
Experiment in all cases: NCI-60 cell line screen, 48 h
786-0 = tested on: 786-0
A549 = tested on: A549
HCT-116 = tested on: HCT-116
Hs-578T = tested on: Hs-578T
K562 = tested on: K562
LOX IMVI = tested on: LOX IMVI
MCF7 = tested on: MCF7
MDA-MB-231 = tested on: MDA-MB-231
OVCAR-4 = tested on: OVCAR-4
OVCAR-8 = tested on: OVCAR-8
RXF 393 = tested on: RXF 393
SN12C = tested on: SN12C
SNB-19 = tested on: SNB-19
SNB-75 = tested on: SNB-75
SR = tested on: SR
U-251 = tested on: U-251
UACC-257 = tested on: UACC-257
UACC-62 = tested on: UACC-62
UO-31 = tested on: UO-31
PC-3 = tested on: PC-3

SMILES | GI50 (786-0) | GI50 (A549) | GI50 (HCT-116) | GI50 (Hs-578T) | GI50 (K562) | GI50 (LOX IMVI) | GI50 (MCF7) | GI50 (MDA-MB-231) | GI50 (OVCAR-4) | GI50 (OVCAR-8) | GI50 (RXF 393) | GI50 (SN12C) | GI50 (SNB-19) | GI50 (SNB-75) | GI50 (SR) | GI50 (U-251) | GI50 (UACC-257) | GI50 (UACC-62) | GI50 (UO-31) | GI50 (PC-3)
C=CCC(C)C12CCNC(Cc3ccc(O)cc31)C2C (stereo unspecified) | > 100 µM (inactive) | > 100 µM (inactive) | > 100 µM (inactive) | 82.8 µM (inactive) | 41.3 µM (inactive) | > 100 µM (inactive) | > 100 µM (inactive) | > 100 µM (inactive) | > 100 µM (inactive) | > 100 µM (inactive) | > 100 µM (inactive) | > 100 µM (inactive) | > 100 µM (inactive) | > 100 µM (inactive) | 82.4 µM (inactive) | > 100 µM (inactive) | 66.2 µM (inactive) | > 100 µM (inactive) | 38.6 µM (inactive) | 
CC1(C)C2CCC(N)(C2)C1N (stereo unspecified) | > 100 µM (inactive) | > 100 µM (inactive) | > 100 µM (inactive) |  | > 100 µM (inactive) | > 100 µM (inactive) | > 100 µM (inactive) |  | > 100 µM (inactive) | > 100 µM (inactive) | > 100 µM (inactive) | > 100 µM (inactive) | > 100 µM (inactive) | > 100 µM (inactive) | > 100 µM (inactive) | > 100 µM (inactive) | > 100 µM (inactive) | > 100 µM (inactive) | > 100 µM (inactive) | > 100 µM (inactive)
Cc1nc(N)nc(N)c1CCCCc1ccccc1 | 4.52 µM (inactive) | 3.67 µM (inactive) | 5.21 µM (inactive) |  | 0.841 µM (active) | 5.83 µM (inactive) |  |  | 58.6 µM (inactive) | 8.2 µM (inactive) | 11.1 µM (inactive) | 22.6 µM (inactive) | 32.4 µM (inactive) | 47 µM (inactive) | 13.3 µM (inactive) | 11.2 µM (inactive) | 10.2 µM (inactive) | 5.28 µM (inactive) | 19.4 µM (inactive) | 
[N-]=[N+]=Nc1c(N2CCOCC2)c(Cl)nc2ccccc12 | 86.7 µM (inactive) | 51.2 µM (inactive) | 39.5 µM (inactive) | 44.8 µM (inactive) | 37.6 µM (inactive) | 46.6 µM (inactive) |  | 23.1 µM (inactive) | 33.7 µM (inactive) | 35.2 µM (inactive) | 64.6 µM (inactive) | 47.8 µM (inactive) | > 100 µM (inactive) | < 0.01 µM (active) | 92.3 µM (inactive) | 82.6 µM (inactive) | 27.9 µM (inactive) |  | 33.6 µM (inactive) | 34.2 µM (inactive)
c1ccc2c(c1)ccc1nc3ccccn3c12 | > 100 µM (inactive) | > 100 µM (inactive) |  | 15.3 µM (inactive) | > 100 µM (inactive) |  | > 100 µM (inactive) |  |  | > 100 µM (inactive) | > 100 µM (inactive) | > 100 µM (inactive) | > 100 µM (inactive) | > 100 µM (inactive) | > 100 µM (inactive) | > 100 µM (inactive) | > 100 µM (inactive) | > 100 µM (inactive) | 70.6 µM (inactive) | > 100 µM (inactive)
O=[N+]([O-])c1ccc(C2=Nn3cnnc3SC2)o1 | 17.3 µM (inactive) | 20.6 µM (inactive) | 14 µM (inactive) |  | 21.5 µM (inactive) | 2.06 µM (inactive) |  |  | > 10 µM (inactive) | 20.1 µM (inactive) | 18.4 µM (inactive) | 16.5 µM (inactive) | 29 µM (inactive) | 25.3 µM (inactive) | 16.7 µM (inactive) | 16.3 µM (inactive) | 15.5 µM (inactive) | > 10 µM (inactive) | 21.4 µM (inactive) | 
COc1cc2c(cc1NC(=O)c1ccccc1)c1c(n2S(=O)(=O)c2ccccc2)CCN(S(=O)(=O)c2ccccc2)C1 | > 100 µM (inactive) | > 100 µM (inactive) | > 100 µM (inactive) | > 100 µM (inactive) | > 100 µM (inactive) | > 100 µM (inactive) |  |  | > 100 µM (inactive) | > 100 µM (inactive) | > 100 µM (inactive) |  | > 100 µM (inactive) | > 100 µM (inactive) | > 100 µM (inactive) | > 100 µM (inactive) | > 100 µM (inactive) | > 100 µM (inactive) |  | > 100 µM (inactive)
O=C(Nc1ccc([N+](=O)[O-])cc1[N+](=O)[O-])C(=O)C(C(=O)c1ccc(Cl)c(Cl)c1)C1OC(=O)c2ccccc21 (stereo unspecified) | 18.5 µM (inactive) | 26.1 µM (inactive) | 19.4 µM (inactive) |  | 28.4 µM (inactive) | 17.5 µM (inactive) |  |  | 42.9 µM (inactive) | 15.2 µM (inactive) | 11.8 µM (inactive) | 24.1 µM (inactive) | 18.6 µM (inactive) | > 100 µM (inactive) | 26.5 µM (inactive) | 30.3 µM (inactive) | 22.6 µM (inactive) | 16.3 µM (inactive) | 26.3 µM (inactive) | 
COc1ccc(-c2c3ccccc3c(-c3ccc(OC)cc3)c3ccccc23)cc1 | > 100 µM (inactive) | > 100 µM (inactive) | > 100 µM (inactive) |  | > 100 µM (inactive) | > 100 µM (inactive) |  |  | > 100 µM (inactive) | > 100 µM (inactive) | > 100 µM (inactive) | > 100 µM (inactive) | > 100 µM (inactive) | 29.5 µM (inactive) | > 100 µM (inactive) | > 100 µM (inactive) | > 100 µM (inactive) | > 100 µM (inactive) | > 100 µM (inactive) | 
CCOc1ccc(N/C(=C(/C(Cl)=C(/Cl)N2CCCCC2)[N+](=O)[O-])n2nnc3ccccc32)cc1 | 18.7 µM (inactive) | 21.5 µM (inactive) | 16.7 µM (inactive) |  | 17.4 µM (inactive) |  | 16.9 µM (inactive) | 20.9 µM (inactive) |  |  |  | 19.3 µM (inactive) | 19.9 µM (inactive) | 19.9 µM (inactive) |  | 15.6 µM (inactive) | 16.9 µM (inactive) | 14.4 µM (inactive) | 2 µM (inactive) | 11.6 µM (inactive)
Cc1cc(NS(=O)(=O)c2ccc(NC(=O)c3cccc4c(NNc5ccc(S(N)(=O)=O)cc5)c5ccccc5nc34)cc2)no1 | 54.6 µM (inactive) | > 100 µM (inactive) | 33.2 µM (inactive) |  | 33.4 µM (inactive) | 30.5 µM (inactive) | 81.3 µM (inactive) | 54.5 µM (inactive) | 31.8 µM (inactive) | 47.9 µM (inactive) | 41.5 µM (inactive) | 49.9 µM (inactive) | 60.4 µM (inactive) | 31.7 µM (inactive) | 35.8 µM (inactive) | 24 µM (inactive) | > 100 µM (inactive) | 43.4 µM (inactive) | 36.1 µM (inactive) | 33.7 µM (inactive)
COc1ccccc1N1C(=O)/C(=C\c2cc(OC)c(OC)c(OC)c2)S(=O)(=O)C1c1ccccc1 (stereo unspecified) | 54.7 µM (inactive) | 44 µM (inactive) | 23.8 µM (inactive) | 32.7 µM (inactive) | 28.6 µM (inactive) | 29.4 µM (inactive) | 27.4 µM (inactive) | 52.6 µM (inactive) | 39.9 µM (inactive) | 37.2 µM (inactive) | 10.6 µM (inactive) | 73.6 µM (inactive) | 32.6 µM (inactive) |  | 23.7 µM (inactive) | 18.6 µM (inactive) | 70.1 µM (inactive) | 29.9 µM (inactive) | 36.5 µM (inactive) | 
CC1OC(n2cc(F)c(=O)[nH]c2=O)C=CC1O (stereo unspecified) | > 100 µM (inactive) | > 100 µM (inactive) | > 100 µM (inactive) |  | > 57.8 µM (inactive) | > 43.2 µM (inactive) |  |  | > 100 µM (inactive) | > 100 µM (inactive) | > 100 µM (inactive) | > 100 µM (inactive) | > 100 µM (inactive) | > 100 µM (inactive) | > 100 µM (inactive) | > 100 µM (inactive) | > 100 µM (inactive) | > 100 µM (inactive) | > 100 µM (inactive) | 
CNC(=O)OCc1nc([S+](C)[O-])n(C)c1COC(=O)NC (stereo unspecified) | > 100 µM (inactive) | > 46.5 µM (inactive) | > 100 µM (inactive) |  | > 100 µM (inactive) | > 100 µM (inactive) | > 100 µM (inactive) |  | > 51.9 µM (inactive) | > 100 µM (inactive) | > 100 µM (inactive) | > 100 µM (inactive) | > 100 µM (inactive) | > 100 µM (inactive) | > 100 µM (inactive) | > 100 µM (inactive) | > 100 µM (inactive) | > 49.1 µM (inactive) | > 100 µM (inactive) | 
COC(=O)C(Cc1c[nH]c2ccccc12)NC(=O)C(Cc1c[nH]c2ccccc12)NC(=O)C(Cc1c[nH]c2ccccc12)NC(=O)C(Cc1c[nH]c2ccccc12)NC(=O)OC(C)(C)C (stereo unspecified) (Boc-WWWW-OMe; configuration not given here) | 5.14 µM (inactive) | 39.4 µM (inactive) | 13.9 µM (inactive) |  | 4.8 µM (inactive) | 12.7 µM (inactive) | < 0.01 µM (active) | > 100 µM (inactive) | 48.5 µM (inactive) | 26.9 µM (inactive) |  | > 100 µM (inactive) | 31.9 µM (inactive) | 25.5 µM (inactive) | 4.51 µM (inactive) | 14.4 µM (inactive) | 79.4 µM (inactive) | 15.6 µM (inactive) | 89.7 µM (inactive) | 19.5 µM (inactive)
NCCCCN [PUTRESCINE HYDROCHLORIDE] | > 100 µM (inactive) | > 100 µM (inactive) | > 100 µM (inactive) |  | > 100 µM (inactive) | > 100 µM (inactive) | > 100 µM (inactive) | > 100 µM (inactive) | 19.4 µM (inactive) | > 100 µM (inactive) | > 100 µM (inactive) |  | > 100 µM (inactive) | > 100 µM (inactive) | > 100 µM (inactive) | > 100 µM (inactive) | > 100 µM (inactive) | > 100 µM (inactive) | > 100 µM (inactive) | > 100 µM (inactive)
